# Experimental data published in US8192962B2, “Processes for detecting toxic substances” (Daikin Industries, Ltd., priority 2001, dated 2012).
# Tested on: Genes belonging to other category
# Assay: DNA chip mRNA expression in yeast, genes belonging to other category (Table 9)
# Assay type: cell-based, Saccharomyces cerevisiae S288C
# Procedure: Yeast (Saccharomyces cerevisiae S288C (α SUC2mal mel gap2 CUP1)) were incubated at 25° C. on YPD medium (yeast extract 1%, polypepton 2%, glucose 2%). One of toxic chemical substances was added to the cells at logarithmic growth phase, and the cells were further incubated for two hours. Cells were cultured without any chemical substance in the same condition, and were used as control. Concentrations of the chemical substances were defined to inhibit the growth of the yeast but not lead to death.
# After completion of the incubation, the culture was centrifuged to collect the cells. To the cells, sodium acetate buffer (50 mM sodium acetate, 10 mM EDTA, 1% SDS) was added, and the mixture was shaken at 65° C. for five minutes, followed by returning to room temperature, and obtaining the supernatant, of which the procedures were repeated two times. To the supernatant, ½ amount of a solution of phenol/chloroform was added, and the mixture was centrifuged to give a supernatant, which was added with an equal amount of chloroform, and the mixture was centrifuged to give a supernatant. To the supernatant, an equal amount of isopropanol containing 0.3 M sodium acetate was added, and the mixture was allowed to stand at room temperature for 30 minutes, after which the mixture was centrifuged to give a sediment of the whole RNAs. Seventy % ethanol was added to the sediment, and the mixture was again centrifuged to give a sediment, which was then dried and dissolved in water. mRNA was isolated from the whole RNAs as followings. In view of the fact that a poly A chain is attached to the 3′ terminus of mRNA, a polynucleotide having a poly T structure which was immobilized on the surface of latex beads was used to trap the mRNA, and then the mRNA was washed and eluted with spine column (Oligotex-dT30<Super>mRNA Purification Kit, Takara). Reverse transcription of the mRNA was conducted with a reverse transcriptase (Super Script II Reverse Transcriptase; catalogue No. 18064-014, GibcoBRL) using fluorescence-labeled nucleotides to give cDNAs that were introduced with Cy3-dUTP or Cy5-dUTP during the reverse transcription.
# The labeled cDNAs were dissolved in TE buffer (10mM Tris-HCl/1 mM EDTA, pH8.0), and the solution was dropped on the DNA chip containing the whole genes of yeast (DNA Chip Research Inc. Japan) so that the cDNAs were hybridized on the DNA chip at 65° C. for over 12 hours. The fluoresces intensity of the DNA chip was read with a scanner, and the ratio relative to the fluorescence intensity resulting from the absence of chemical substance was estimated as the following, which is shown in Tables 1 to 9: […]
structure (smiles),measurement,setting,value
"C[S+](C)[O-] [(15), dimethylsulfoxide]",The level of expressed mRNA in the presence of chemical substance/The level of expressed mRNA in the absence of chemical substance,yeast gene YKL190W,1.4
same,The level of expressed mRNA in the presence of chemical substance/The level of expressed mRNA in the absence of chemical substance,yeast gene YKR014C,1.4
same,The level of expressed mRNA in the presence of chemical substance/The level of expressed mRNA in the absence of chemical substance,yeast gene YLR090W,0.8
same,The level of expressed mRNA in the presence of chemical substance/The level of expressed mRNA in the absence of chemical substance,yeast gene YLR093C,0.9
same,The level of expressed mRNA in the presence of chemical substance/The level of expressed mRNA in the absence of chemical substance,yeast gene YLR118C,0.8
same,The level of expressed mRNA in the presence of chemical substance/The level of expressed mRNA in the absence of chemical substance,yeast gene YLR120C,2.7
same,The level of expressed mRNA in the presence of chemical substance/The level of expressed mRNA in the absence of chemical substance,yeast gene YLR178C,2.3
same,The level of expressed mRNA in the presence of chemical substance/The level of expressed mRNA in the absence of chemical substance,yeast gene YLR250W,2.6
same,The level of expressed mRNA in the presence of chemical substance/The level of expressed mRNA in the absence of chemical substance,yeast gene YLR251W,0.8
same,The level of expressed mRNA in the presence of chemical substance/The level of expressed mRNA in the absence of chemical substance,yeast gene YLR327C,0.8
same,The level of expressed mRNA in the presence of chemical substance/The level of expressed mRNA in the absence of chemical substance,yeast gene YLR356W,2.8
same,The level of expressed mRNA in the presence of chemical substance/The level of expressed mRNA in the absence of chemical substance,yeast gene YLR362W,1.3
same,The level of expressed mRNA in the presence of chemical substance/The level of expressed mRNA in the absence of chemical substance,yeast gene YLR391W,3.9
same,The level of expressed mRNA in the presence of chemical substance/The level of expressed mRNA in the absence of chemical substance,yeast gene YMR004W,1.3
same,The level of expressed mRNA in the presence of chemical substance/The level of expressed mRNA in the absence of chemical substance,yeast gene YMR051C,1.7
same,The level of expressed mRNA in the presence of chemical substance/The level of expressed mRNA in the absence of chemical substance,yeast gene YMR139W,0.9
same,The level of expressed mRNA in the presence of chemical substance/The level of expressed mRNA in the absence of chemical substance,yeast gene YMR219W,1.7
same,The level of expressed mRNA in the presence of chemical substance/The level of expressed mRNA in the absence of chemical substance,yeast gene YMR226C,2.0
same,The level of expressed mRNA in the presence of chemical substance/The level of expressed mRNA in the absence of chemical substance,yeast gene YMR275C,1.7
same,The level of expressed mRNA in the presence of chemical substance/The level of expressed mRNA in the absence of chemical substance,yeast gene YMR276W,3.3
same,The level of expressed mRNA in the presence of chemical substance/The level of expressed mRNA in the absence of chemical substance,yeast gene YNL006W,0.7
same,The level of expressed mRNA in the presence of chemical substance/The level of expressed mRNA in the absence of chemical substance,yeast gene YNL007C,0.8
same,The level of expressed mRNA in the presence of chemical substance/The level of expressed mRNA in the absence of chemical substance,yeast gene YNL015W,1.4
same,The level of expressed mRNA in the presence of chemical substance/The level of expressed mRNA in the absence of chemical substance,yeast gene YNL214W,0.9
same,The level of expressed mRNA in the presence of chemical substance/The level of expressed mRNA in the absence of chemical substance,yeast gene YNL333W,1.0
same,The level of expressed mRNA in the presence of chemical substance/The level of expressed mRNA in the absence of chemical substance,yeast gene YNR010W,0.8
same,The level of expressed mRNA in the presence of chemical substance/The level of expressed mRNA in the absence of chemical substance,yeast gene YNR069C,1.0
same,The level of expressed mRNA in the presence of chemical substance/The level of expressed mRNA in the absence of chemical substance,yeast gene YOL013C,2.7
same,The level of expressed mRNA in the presence of chemical substance/The level of expressed mRNA in the absence of chemical substance,yeast gene YOL164W,1.0
same,The level of expressed mRNA in the presence of chemical substance/The level of expressed mRNA in the absence of chemical substance,yeast gene YOR117W,1.4
same,The level of expressed mRNA in the presence of chemical substance/The level of expressed mRNA in the absence of chemical substance,yeast gene YOR124C,1.3
same,The level of expressed mRNA in the presence of chemical substance/The level of expressed mRNA in the absence of chemical substance,yeast gene YOR132W,1.5
same,The level of expressed mRNA in the presence of chemical substance/The level of expressed mRNA in the absence of chemical substance,yeast gene YOR157C,1.9
same,The level of expressed mRNA in the presence of chemical substance/The level of expressed mRNA in the absence of chemical substance,yeast gene YOR165W,0.8
same,The level of expressed mRNA in the presence of chemical substance/The level of expressed mRNA in the absence of chemical substance,yeast gene YOR181W,3.4
same,The level of expressed mRNA in the presence of chemical substance/The level of expressed mRNA in the absence of chemical substance,yeast gene YOR185C,1.0
same,The level of expressed mRNA in the presence of chemical substance/The level of expressed mRNA in the absence of chemical substance,yeast gene YOR198C,3.8
same,The level of expressed mRNA in the presence of chemical substance/The level of expressed mRNA in the absence of chemical substance,yeast gene YOR259C,1.3
same,The level of expressed mRNA in the presence of chemical substance/The level of expressed mRNA in the absence of chemical substance,yeast gene YOR261C,1.3
same,The level of expressed mRNA in the presence of chemical substance/The level of expressed mRNA in the absence of chemical substance,yeast gene YOR285W,2.0
same,The level of expressed mRNA in the presence of chemical substance/The level of expressed mRNA in the absence of chemical substance,yeast gene YOR288C,1.8
same,The level of expressed mRNA in the presence of chemical substance/The level of expressed mRNA in the absence of chemical substance,yeast gene YOR355W,3.2
same,The level of expressed mRNA in the presence of chemical substance/The level of expressed mRNA in the absence of chemical substance,yeast gene YPL018W,0.9
same,The level of expressed mRNA in the presence of chemical substance/The level of expressed mRNA in the absence of chemical substance,yeast gene YPL089C,2.6
same,The level of expressed mRNA in the presence of chemical substance/The level of expressed mRNA in the absence of chemical substance,yeast gene YPL109C,1.3
same,The level of expressed mRNA in the presence of chemical substance/The level of expressed mRNA in the absence of chemical substance,yeast gene YPL149W,0.8
same,The level of expressed mRNA in the presence of chemical substance/The level of expressed mRNA in the absence of chemical substance,yeast gene YPL154C,4.0
same,The level of expressed mRNA in the presence of chemical substance/The level of expressed mRNA in the absence of chemical substance,yeast gene YPR073C,0.8
same,The level of expressed mRNA in the presence of chemical substance/The level of expressed mRNA in the absence of chemical substance,yeast gene YPR103W,1.0
same,The level of expressed mRNA in the presence of chemical substance/The level of expressed mRNA in the absence of chemical substance,yeast gene YPR108W,1.3
